Experiments:
[1] = tested on: PC3 prostate tumour cell line; details: read-out: GI50 PC3; in vitro; cited from earlier work
[2] = tested on: ME 180 cervical tumour cell line; details: read-out: GI50 ME 180; in vitro; cited from earlier work
[3] = tested on: MCF-7 breast tumour cell line; details: read-out: GI50 MCF-7; in vitro; cited from earlier work
[4] = tested on: acetyl CoA cholestryl acyl tranferase (ACAT); design: method as in PMID 10425145; details: cited from earlier work
MCF-7 cells = test: WST-1 cytotoxicity assay, MCF-7 cells; assay type: cell-based, human; details: for SI MCF-7: Selectivity Index = IC50(KMST-6)/IC50(MCF-7); for IC50: WST-1 assay, 24 h treatment
Protocol: (§1) HeLa, HT-29, MCF-7 and KMST-6 cells were prepared from our laboratory stocks. Briefly, cell monolayers were maintained in Dulbecco’s modified Eagle’s (DMEM, Lonza Group Ltd., Base, Switzerland) medium with phenol red supplemented with 10% foetal bovine serum (FBS, Biochrom AG, Berlin, Germany) and 1% Penicillin–streptomycin (Lonza Group Ltd.). All cells were maintained in a humidified incubated at 37 °C in an atmosphere of 5% CO2. The cells were harvested using trypsin (Lonza Group Ltd.), and viable cell concentrations were determined using the Countess® Automated Cell Counter (Invitrogen, CA, USA). 5 × 10^4 viable cells were added to each well of a 96-well tissue culture plate and incubated overnight at 37 °C under 5% CO2 in a humidified incubator to allow cells to attach to wells.
(§2) Cell viability was measured using the WST-1 assay (Roche Diagnostics GmbH, Mannheim, Germany) as previously described by Ngamwongsatit et al., 2008. Cells were plated in 96-well cell culture plates at a concentration of 5 × 10^4 cells/well in 100 µL culture medium. After 24 h the cells were treated with increasing concentrations of ethanol extract (0–2 mg/mL), fractions (0–2 mg/mL) and purified compounds (0–250 µg/mL) for a further 24 h. The extracts, fractions and compounds were prepared in DMSO and then mixed with the culture medium. The final concentrations of the DMSO were less than 0.1%. Following 24 h treatment, 10 µL of cell proliferation reagent WST-1 was added and the plates were incubated for 4 h at 37 °C under 5% CO2 in a humidified incubator. The plates wereshakenfor 1 min on a shaker and the absorbance of the samples were measured at 450 nm (reference wavelength was 750 nm) on a micro-plate reader. The cell viability was calculated using the following formula: % Viability = ODtreated well − ODblank/ODuntreated well − ODblank(1) IC50 values were calculated using Prism Graph pad software. Triplicate experiments were conducted and the results expressed as mean ± SEM.

HeLa cells = test: WST-1 cytotoxicity assay, HeLa cells; assay type: cell-based, human; details: for SI HeLa: Selectivity Index = IC50(KMST-6)/IC50(HeLa); for IC50: WST-1 assay, 24 h treatment
Protocol: as §1, §2

[5] = E/Z isomer stability followed by 1H-NMR; assay type: physicochemical; details: 2–3 months under normal working conditions
Excerpt: Triterpene esters containing the E-coumaric acid isomer have been reported from natural sources, while, the co-existence of E- and Z-coumaric acid esters of ursolic acid (compounds 2 and 3) in Plumeria obtusa of the same family has been reported once.

HT-29 cells = test: WST-1 cytotoxicity assay, HT-29 cells; assay type: cell-based, human; details: for SI HT-29: Selectivity Index = IC50(KMST-6)/IC50(HT-29); for IC50: WST-1 assay, 24 h treatment
Protocol: as §1, §2

KMST-6 cells = test: WST-1 cytotoxicity assay, non-cancerous KMST-6 fibroblasts; assay type: cell-based, human; details: WST-1 assay; for IC50: 24 h treatment, non-cancerous fibroblast
Protocol: as §1, §2

[6] = Stability of the hydrolysed derivative in organic solvents; assay type: physicochemical; details: organic solvents such as methanol and chloroform
Excerpt: Compound 4 was isolated as colourless needle-like crystals with molecular formula of C30H48O2 on the basis of TOF-ESI-MS m/z 441.3735[M+H]^+. […] The signal at δ 174.8 (C-2), 77.9 (C-3) in addition to oxygenated methylene protons at δ 3.79 and 4.08 (CH2-3) indicated the presence of a lactone group. […] The NMR data were assigned unambiguously from 2D NMR spectral analysis of compound 4 and its hydrolyzed product 5. The structure was finally established from X-ray diffraction studies. Figure 2 illustrates the perspective view of the molecule with its relative configuration. The compound was thus assigned as 2,3-seco-taraxer-14-en-2,3-lactone and given the name pycanocarpine. After alkaline hydrolysis, compound 4 produced the unstable derivative viz 2,3-seco-3-hydroxy-taraxer-14-en-3-oic acid (5) as an off-white amorphous powder. The TOF-ESI-MS indicated an m/z 459.3889 [M+H]^+. It was noticeable that the free carboxylic and hydroxyl groups would easily reform the lactone ring after a short time in organic solvents such as methanol and chloroform. The NMR data of 5 is similar to the parent compound 4 and is illustrated in Table 1. Minor changes were observed between 4 and 5 for carbons C-11, -23, -24, and -26. The stereochemistry of both compounds, especially ring A, may partially explain this. In 4 the carbonyl group is directed into the same plan similar to C-24, -26 and -11.

[7] = at the dosages used (0–250 µg/mL)

SMILES | E/Z isomerization of the isomers (1H-NMR) [5] | melting point | SI MCF-7 (MCF-7 cells) | IC50 (MCF-7 cells) | SI HeLa (HeLa cells) | IC50 (HeLa cells) | SI HT-29 (HT-29 cells) | IC50 (HT-29 cells) | cytotoxicity to non-cancerous cell line KMST-6 (in words) (KMST-6 cells) | IC50 (KMST-6 cells) | IC50 (MCF-7 cells; Homo sapiens, MCF7, 24 h) | IC50 (HeLa cells; Homo sapiens, HeLa, 24 h) | IC50 (HT-29 cells; Homo sapiens, HT-29, 24 h) | IC50 (KMST-6 cells; Homo sapiens, Fibroblast, 24 h) | also measured
C[C@H]1[C@H](C)CC[C@]2(C(=O)O)CC[C@]3(C)C(=CC[C@@H]4[C@@]5(C)CC[C@H](OC(=O)/C=C\c6ccc(O)cc6)C(C)(C)[C@@H]5CC[C@]43C)[C@H]12 (relative stereo) [cis-3-O-p-hydroxycinnamoyl ursolic acid] |  |  |  |  |  |  |  |  |  |  |  |  |  |  | GI50 [1]: ~20 µM; GI50 [2]: ~20 µM; GI50 [3]: ~20 µM
C[C@H]1[C@H](C)CC[C@]2(C(=O)O)CC[C@]3(C)C(=CC[C@@H]4[C@@]5(C)CC[C@H](O)C(C)(C)[C@@H]5CC[C@]43C)[C@H]12 [Compound 1, ursolic acid] |  |  | 5.0 |  | 10.0 |  | 10.0 |  |  |  | 20 µM | 10 µM | 10 µM | 100 µM | 
CC1CCC2(C(=O)O)CCC3(COC(=O)C=Cc4ccc(O)cc4)C(=CCC4C5(C)CCC(O)C(C)(C)C5CCC43C)C2C1C (stereo not shown) [Compound 2, 27-p-E-coumaroloxyursolic acid] | did not observe any such change |  | 1.7 | 60 µM | 2 | 50 µM | 1 | 100 µM |  | 100 µM |  |  |  |  | 

Now from value to compound, other results behind:

E/Z isomerization of the isomers (1H-NMR) [5] | melting point | SMILES | SI MCF-7 (MCF-7 cells) | IC50 (MCF-7 cells) | SI HeLa (HeLa cells) | IC50 (HeLa cells) | SI HT-29 (HT-29 cells) | IC50 (HT-29 cells) | cytotoxicity to non-cancerous cell line KMST-6 (in words) (KMST-6 cells) | IC50 (KMST-6 cells) | IC50 (MCF-7 cells; Homo sapiens, MCF7, 24 h) | IC50 (HeLa cells; Homo sapiens, HeLa, 24 h) | IC50 (HT-29 cells; Homo sapiens, HT-29, 24 h) | IC50 (KMST-6 cells; Homo sapiens, Fibroblast, 24 h) | also measured
did not observe any such change |  | CC1CCC2(C(=O)O)CCC3(COC(=O)C=Cc4ccc(O)cc4)C(=CCC4C5(C)CCC(O)C(C)(C)C5CCC43C)C2C1C (stereo not shown) [Compound 3, 27-p-Z-coumaroyloxyursolic acid] | 1.7 | 180 µM | 1.5 | 200 µM | 1.3 | 230 µM | non- cytotoxic | 300 µM |  |  |  |  | activity against ACAT (in words) [4]: potent activity
 | 246 to 249 °C | CC1(C)CCC2(C)CC=C3C(C)(CCC4C3(C)CCC3C(C)(C)COC(=O)CC34C)C2C1 (stereo not shown) [Compound 4, 2,3-seco-taraxer-14-en-2,3-lactone] | >30 |  |  |  |  |  | non- cytotoxic |  | 20 µM | > 600 µM | > 600 µM | > 600 µM | cytotoxicity on HeLa cells (in words) (HeLa cells; [7]): did not show cytotoxicity; cytotoxicity on HT-29 cells (in words) (HT-29 cells; [7]): did not show cytotoxicity
 | 237 to 241 °C | CC1(C)CC[C@]2(C)CC=C3[C@]4(C)CCC(C(C)(C)CO)[C@](C)(CC(=O)O)C4CC[C@@]3(C)C2C1 (stereo partly shown) [Compound 5, 2,3-seco-3-hydroxy-taraxer-14-en-3-oic acid] | 1 |  | 0.06 |  | 0.06 |  |  |  | 10 µM | 180 µM | 170 µM | 10 µM | stability (re-lactonisation) [6]: unstable
